# Source: patent US10829446B2, “Aryl sulfonohydrazides” (MONASH UNIVERSITY, priority 2015, dated 2020)
# Experiments:
# Assay type in all cases: cell-based
# [1] = system: Wild type pre B cells; assay: Bioassay 8: cell cycle analysis (DNA content and Ki67); settings: for cells in G0 / cells in G1 / cells in G2/M / cells in S: 1 μM
# Protocol: Pre B cells are isolated from bone marrow according to the criterion: cell surface expression of B220, CD19, but not cKit or IgM. Pre-B cells are cultured on OP9 cells with IL7 in the presence of compounds at various concentrations. The stages of the cell cycle in cultured pre-B cells with and without treatment is analysed by flow cytometry using a stain for DNA content combined with the cell cycle marker Ki67 to enumerate the proportion of cells in different phases of the cell cycle.
# [2] = system: Eμ-Myc pre-leukemia pro-B cells; assay: Bioassay 5: pro-B cell colony formation in methylcellulose, Eμ-Myc
# Protocol: Pro-B cells are purified by positive selection using antiCD19-magnetic beads and fluorescence activated cell sorting using the criterion: cell surface expression of B220, CD19 and cKit but not IgM. After purification, 25,000 pro-B cells are seeded onto 3.5 cm culture dishes plate containing methylcellulose (MethoCult M3630, STEM CELL technologies) for 7 days. After 7 days culture, colonies in which there were more than 50 cells are counted. Subsequently, 190,000 pro-B cells are replated into methylcellulose for another 7 days of culture, followed by enumeration.
# [3] = system: Wild type pre B cells; assay: Bioassay 6: proliferation curves of pre-B cells on OP9 feeder layer, wild type
# Excerpt: Pre B cells are isolated from bone marrow according to the criterion: cell surface expression of B220, CD19, but not cKit or IgM. Proliferation curves of wild type pre-B cells and Ep-Myc pre-leukemia pre B cells are generated by counting cells cultured on OP9 cell feeder layer in the presence of the growth factor IL-7. Media is changed every two days and cells are passaged every 4 days.
smiles,measurement,setting,value
Cc1cc(-c2ccccc2)cc(C(=O)NNS(=O)(=O)c2ccccc2)c1F [Compound 36],cells in G0,[1]; cultured for 4 days,14.5%
same,cells in G1,[1]; cultured for 4 days,55.9%
same,cells in G2/M,[1]; cultured for 4 days,12.7%
same,cells in S,[1]; cultured for 4 days,15.6%
same,cells in G0,[1]; cultured for 6 days,11.0%
same,cells in G1,[1]; cultured for 6 days,66.6%
same,cells in G2/M,[1]; cultured for 6 days,9.0%
same,cells in S,[1]; cultured for 6 days,8.3%
same,number of cells in S phase down-regulated,[1]; wild type pre-B cells,40%
same,colony number,"[2]; 1 μM, Eμ-Myc pre-leukemia pro-B cells, primary colonies",104.625
same,"colony number, secondary colony formation","[2]; 1 μM, Eμ-Myc pre-leukemia pro-B cells, secondary colony formation",9.75
same,proliferation and secondary colony formation of cells expressing the oncogene cMyc,[2]; in words,equally effective in inhibiting proliferation and secondary colony formation
same,cumulative average cell number,"[3]; 1 μM, Day 4",54333
same,cumulative average cell number,"[3]; 1 μM, Day 8",73474
same,cumulative average cell number,"[3]; 1 μM, Day 12",15097
same,cumulative average cell number,"[3]; 5 μM, Day 4",32555
same,cumulative average cell number,"[3]; 5 μM, Day 8",19925
same,cumulative average cell number,"[3]; 5 μM, Day 12",0.000
same,cumulative average cell number,"[3]; 10 μM, Day 4",26111
same,cumulative average cell number,"[3]; 10 μM, Day 8",8192
same,cumulative average cell number,"[3]; 10 μM, Day 12",0.000
same,proliferation of wild type B cell progenitors,"[3]; in words, compared to vehicle",inhibited
